Experiment [1] deals with A375. Kind of experiment: Compounds cellular killing in A375. The class given is cell-based, human. The settings on record: Homo sapiens, A375, 6 days, Cell Titer-Glo. The method, then:
(§1) Seeding cells A375 (1E3/well) or Calu-6 (2E3/well) into 96-well plate (Greiner: 655090), 100 ul/well. Incubation at 37° C., 5% CO2, overnight.
(§2) Adding the fresh growth-medium containing the varying concentrations of compounds, 50 ul/well.
(§3) Incubation at 37° C., 5% CO2, 6 days.
(§4) The cell viability detected by Cell Titer-Glo (Promega, G7573). Add 70 µL/well of CellTiter-Glo® Reagent in each well.
(§5) Allow the plates to incubate at room temperature for 10 minutes to stabilize luminescent signal.
(§6) Analyze with Microplate Reader.
(§7) Seeding cells A375 ([…] or Calu-6 (2E3/well) into 96-well plate (Greiner: 655090), 100 ul/well. Incubation at 37° C., […], overnight.

Experiment [2] deals with Calu-6. Kind of experiment: Compounds cellular killing in Calu-6. The settings on record: Homo sapiens, Calu-6, 6 days, Cell Titer-Glo. In kind it is cell-based, human. The method, then: as §1, §2, §3, §4, §5, §6, §7

Counter-ions that a name gives are not always drawn.

In experiment [1] (A-375, […]), `CC[C@@]1(O)C(=O)OCc2c1cc1n(c2=O)Cc2c-1nc1cc(O)cc3c1c2C(NC(C)=O)CC3` (stereo partly drawn) [Example 1-18, N-((9S)-9-ethyl-5,9-dihydroxy-10,13-dioxo-2,3,9,10,13,15-hexahydro-1H,12H-benzo[de]pyrano[3′,4′:6,7]indolizino[1,2-b]quinolin-1-yl)acetamide] had an EC50 of 5.3 nM and an Emax of 99.9%. Further, in experiment [2] (Calu-6, […]), the EC50 turned out to be 3.1 nM and the Emax is 99.5%.

In experiment [1] (A-375, […]), `CC[C@@]1(O)C(=O)OCc2c1cc1n(c2=O)Cc2c-1nc1cc(F)cc3c1c2[C@@H](N)CC3` [Example 1-22, (1S,9S)-1-amino-9-ethyl-5-fluoro-9-hydroxy-1,2,3,9,12,15-hexahydro-10H,13H-benzo[de]pyrano[3′,4′:6,7]indolizino[1,2-b]quinoline-10,13-dione methanesulfonate] displayed a concentration for a half-maximal effect (EC50) of 1.4 nM and an Emax of 100%. In experiment [2] (Calu-6, […]), this molecule showed a concentration giving a half-maximal response (EC50) of 0.6 nM and an Emax of 99.2%.

In experiment [1] (A-375, […]), `CC[C@@]1(O)C(=O)OCc2c1cc1n(c2=O)Cc2c-1nc1cc(O)cc3c1c2[C@@H](N)CC3` [Example 1-24, (1S,9S)-1-amino-9-ethyl-5,9-dihydroxy-1,2,3,9,12,15-hexahydro-10H,13H-benzo[de]pyrano[3′,4′:6,7]indolizino[1,2-b]quinoline-10,13-dione methanesulfonate] gave an EC50 of 112 nM and an Emax of 96%. In experiment [2] (Calu-6, […]), this molecule gave an EC50 of 118 nM and an Emax of 94.4%.

In experiment [1] (A-375, […]), `CC[C@@]1(O)C(=O)OCc2c1cc1n(c2=O)Cc2c-1nc1cc(F)c(Cl)c3c1c2[C@@H](N)CC3` [Example 1-26, ((1S,9S)-1-amino-4-chloro-9-ethyl-5-fluoro-9-hydroxy-1,2,3,9,12,15-hexahydro-10H,13H-benzo[de]pyrano[3′,4′:6,7]indolizino[1,2-b]quinoline-10,13-dione 2,2,2-trifluoroacetate salt] came in with a concentration giving a half-maximal response (EC50) of 1 nM and an Emax of 98.1%. In experiment [2] (Calu-6, […]), the EC50 turned out to be 0.3 nM and the Emax is 98.1%.

In experiment [1] (A-375, […]), `CC[C@@]1(O)C(=O)OCc2c1cc1n(c2=O)Cc2c-1nc1cc(F)c(C)c3c1c2[C@@H](NC(=O)CO)CC3` [Example 1-A, reference compound] registered an EC50 of 2.2 nM and an Emax of 98.9%. Besides, in experiment [2] (Calu-6, […]), the EC50 came out at 1 nM and the Emax was 98.9%.

In experiment [1] (A-375), `CCc1c2c(nc3ccc(O)cc13)-c1cc3c(c(=O)n1C2)COC(=O)[C@]3(O)CC` [Example 1-C, reference compound] returned an EC50 of 4.3 nM and a maximal effect (Emax) of 99.5%. In experiment [2], the response was half-maximal at 2.6 nM (EC50).

In experiment [1] (A-375, […]), `CC[C@@]1(O)C(=O)OCc2c1cc1n(c2=O)Cc2c-1nc1cc(C)c(C)c3c1c2[C@@H](NC(=O)CO)CC3` [Example 2-1, N-((1S,9S)-9-ethyl-9-hydroxy-4,5-dimethyl-10,13-dioxo-2,3,9,10,13,15-hexahydro-1H,12H-benzo[de]pyrano[3′,4′:6,7]indolizino[1,2-b]quinolin-1-yl)-2-hydroxyacetamide] returned an EC50 of 23 nM and an Emax of 98%. In experiment [2] (Calu-6, […]), this molecule displayed an EC50 of 10 nM and an Emax of 98%.

On to `CC[C@@]1(O)C(=O)OCc2c1cc1n(c2=O)Cc2c-1nc1cc(F)c(C)c3c1c2[C@@H](NC(=O)C1CCC1CO)CC3` (stereo partly drawn) [Example 2-2, N-((1S,9S)-9-ethyl-5-fluoro-9-hydroxy-4-methyl-10,13-dioxo-2,3,9,10,13,15-hexahydro-1H,12H-benzo[de]pyrano[3′,4′:6,7]indolizino[1,2-b]quinolin-1-yl)-2-(hydroxymethyl)cyclobutane-1-carboxamide], for which the half-maximal effective concentration (EC50) came to 5.2 nM in experiment [1] (A-375, […]) and 1.3 nM in experiment [2] (Calu-6, […]). Moreover, the Emax was 99.9% in experiment [1] (A-375, […]) and 98.7% in experiment [2] (Calu-6, […]).

With `CC[C@@]1(O)C(=O)OCc2c1cc1n(c2=O)Cc2c-1nc1cc(F)c(C)c3c1c2[C@@H](NC(=O)C(F)(F)CO)CC3` [Example 2-3, N-((1S,9S)-9-ethyl-5-fluoro-9-hydroxy-4-methyl-10,13-dioxo-2,3,9,10,13,15-hexahydro-1H,12H-benzo[de]pyrano[3′,4′:6,7]indolizino[1,2-b]quinolin-1-yl)-2,2-difluoro-3-hydroxypropanamide], in experiment [1] (A-375, […]), the EC50 came to 2.1 nM and the Emax turned out to be 100%. In experiment [2] (Calu-6, […]), this molecule displayed an EC50 of 0.8 nM and an Emax of 98.5%.

In experiment [1] (A-375, […]), `CC[C@@]1(O)C(=O)OCc2c1cc1n(c2=O)Cc2c-1nc1cc(F)c(OC)c3c1c2[C@@H](NC(=O)CO)CC3` [Example 2-4, N-((1S,9S)-9-ethyl-5-fluoro-9-hydroxy-4-methoxy-10,13-dioxo-2,3,9,10,13,15-hexahydro-1H,12H-benzo[de]pyrano[3′,4′:6,7]indolizino[1,2-b]quinolin-1-yl)-2-hydroxyacetamide] showed an EC50 of 18 nM and an Emax of 99.3%. In experiment [2] (Calu-6, […]), this molecule gave an EC50 of 4.9 nM and an Emax of 99.7%.

Regarding `CC[C@@]1(O)C(=O)OCc2c1cc1n(c2=O)Cc2c-1nc1cc(F)c(C)c3c1c2[C@@H](N(C)CCO)CC3` [Example 2-5, (1S,9S)-9-ethyl-5-fluoro-9-hydroxy-1-((2-hydroxyethyl)(methyl)amino)-4-methyl-1,2,3,9,12,15-hexahydro-10H,13H-benzo[de]pyrano[3′,4′:6,7]indolizino[1,2-b]quinoline-10,13-dione], the half-maximal effective concentration (EC50) amounted to 0.9 nM in experiment [1] (A-375) and 0.3 nM in experiment [2]. Besides, the Emax in experiment [1] (A-375) was 98.8%; in experiment [2] (Calu-6, […]), 98.9%.

For the molecule `CC[C@@]1(O)C(=O)OCc2c1cc1n(c2=O)Cc2c-1nc1cc(F)c(C)c3c1c2[C@@H](NC(=O)OCCO)CC3` [Example 2-6, 2-hydroxyethyl ((1S,9S)-9-ethyl-5-fluoro-9-hydroxy-4-methyl-10,13-dioxo-2,3,9,10,13,15-hexahydro-1H,12H-benzo[de]pyrano[3′,4′:6,7]indolizino[1,2-b]quinolin-1-yl)carbamate], the EC50 in experiment [1] (A-375) worked out at 1.4 nM; in experiment [2] it was 0.3 nM. The Emax in experiment [1] (A-375) came out at 99.9%; in experiment [2] (Calu-6, […]), 96.9%.

Take `CC[C@@]1(O)C(=O)OCc2c1cc1n(c2=O)Cc2c-1nc1cc(Cl)c(C)c3c1c2[C@@H](NC(=O)CO)CC3` [Example 2-7, N-((1S,9S)-5-chloro-9-ethyl-9-hydroxy-4-methyl-10,13-dioxo-2,3,9,10,13,15-hexahydro-1H,12H-benzo[de]pyrano[3′,4′:6,7]indolizino[1,2-b]quinolin-1-yl)-2-hydroxyacetamide]: the EC50 worked out at 2 nM in experiment [1] (A-375, […]) and 0.7 nM in experiment [2] (Calu-6, […]). Further, the maximal effect (Emax) in experiment [1] (A-375, […]) was 99.1%; in experiment [2] (Calu-6, […]), 99.1%.

In experiment [1] (A-375, […]), `CC[C@@]1(O)C(=O)OCc2c1cc1n(c2=O)Cc2c-1nc1cc(Cl)c(C)c3c1c2[C@@H](NC(=O)C(C)(C)CO)CC3` [Example 2-8, N-((1S,9S)-5-chloro-9-ethyl-9-hydroxy-4-methyl-10,13-dioxo-2,3,9,10,13,15-hexahydro-1H,12H-benzo[de]pyrano[3′,4′:6,7]indolizino[1,2-b]quinolin-1-yl)-3-hydroxy-2,2-dimethylpropanamide] returned an EC50 of 1.2 nM and a maximal effect (Emax) of 98.6%. In experiment [2] (Calu-6, […]), this molecule gave an EC50 of 0.4 nM and an Emax of 99.3%.

Turning to `CC[C@@]1(O)C(=O)OCc2c1cc1n(c2=O)Cc2c-1nc1cc3c(c4c1c2[C@@H](NC(=O)CO)CC4)OCO3` [Example 2-11, N-((1S,10S)-10-ethyl-10-hydroxy-11,14-dioxo-2,3,10,11,14,16-hexahydro-1H,13H-benzo[de][1,3]dioxolo[4,5-g]pyrano[3′,4′:6,7]indolizino[1,2-b]quinolin-1-yl)-2-hydroxyacetamide], the EC50 worked out at 10.2 nM in experiment [1] (A-375) and 3.2 nM in experiment [2]. Also, the Emax stood at 99.7% in experiment [1] (A-375) and 99.6% in experiment [2] (Calu-6, […]).

For the molecule `CC[C@@]1(O)C(=O)OCc2c1cc1n(c2=O)Cc2c-1nc1cc(Cl)cc3c1c2[C@@H](NC(=O)CO)CC3` [Example 2-12, N-((1S,9S)-5-chloro-9-ethyl-9-hydroxy-10,13-dioxo-2,3,9,10,13,15-hexahydro-1H,12H-benzo[de]pyrano[3′,4′:6,7]indolizino[1,2-b]quinolin-1-yl)-2-hydroxyacetamide], in experiment [1] (A-375, […]), the half-maximal effective concentration (EC50) stood at 6.8 nM and the Emax turned out to be 99.9%. In experiment [2] (Calu-6, […]), this molecule returned an EC50 of 4.4 nM and an Emax of 98.9%.

For the molecule `CC[C@@]1(O)C(=O)OCc2c1cc1n(c2=O)Cc2c-1nc1cc(Cl)cc3c1c2[C@H](NC(=O)CO)CC3` [Example 2-13, N-((1R,9S)-5-chloro-9-ethyl-9-hydroxy-10,13-dioxo-2,3,9,10,13,15-hexahydro-1H,12H-benzo[de]pyrano[3′,4′:6,7]indolizino[1,2-b]quinolin-1-yl)-2-hydroxyacetamide], the EC50 in experiment [1] (A-375, […]) turned out to be 7.9 nM; in experiment [2] (Calu-6, […]), 5.8 nM. Further, the Emax in experiment [1] (A-375, […]) came out at 99.6%; in experiment [2] (Calu-6, […]) it was 98.4%.

For `CC[C@@]1(O)C(=O)OCc2c1cc1n(c2=O)Cc2c-1nc1cc(F)c(C)c3c1c2C(CCCO)CC3` (stereo partly drawn) [Example 2-14, (9S)-9-ethyl-5-fluoro-9-hydroxy-1-(3-hydroxypropyl)-4-methyl-1,2,3,9,12,15-hexahydro-10H,13H-benzo[de]pyrano[3′,4′:6,7]indolizino[1,2-b]quinoline-10,13-dione], the results for the EC50 in experiment [1] (A-375) and in experiment [2] were 0.3 nM and 0.1 nM, respectively. Further, the Emax in experiment [1] (A-375) came to 100%; in experiment [2] (Calu-6, […]), 99%.

Source of the values: patent publication US20250295798A1, “LIGAND-DRUG CONJUGATE OF EXATECAN ANALOGUE, AND MEDICAL USE THEREOF” (BeiGene Switzerland GmbH, priority 2022, published 2025).
